{"source": "paper PMC8800111", "about": "(The Journal of Biological Chemistry, 2021)", "format_in_all_cases": "cell-based", "key": {"[1]": {"molecular_target": "proteins of U3A human fibrosarcoma cells (4462 proteins detected) (Homo sapiens, UniProt Q9Y592)", "conditions": "protein CEP83; U3A, 10 μM, 2 h"}, "[2]": {"molecular_target": "proteins of U3A human fibrosarcoma cells (4462 proteins detected) (Homo sapiens, UniProt P36776)", "conditions": "protein LONP1; U3A cells"}, "[3]": {"molecular_target": "proteins of U3A human fibrosarcoma cells (4462 proteins detected) (Homo sapiens, UniProt O00487)", "sequence (O00487 whole entry)": "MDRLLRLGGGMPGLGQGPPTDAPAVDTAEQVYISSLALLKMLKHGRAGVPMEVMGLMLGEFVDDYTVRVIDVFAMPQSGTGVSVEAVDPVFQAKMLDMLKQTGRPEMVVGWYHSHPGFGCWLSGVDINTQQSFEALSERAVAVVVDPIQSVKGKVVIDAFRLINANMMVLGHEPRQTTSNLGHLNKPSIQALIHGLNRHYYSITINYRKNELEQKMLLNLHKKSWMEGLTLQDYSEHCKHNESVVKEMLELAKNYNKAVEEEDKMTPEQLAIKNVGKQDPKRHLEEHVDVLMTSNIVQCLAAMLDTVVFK", "conditions": "protein PSMD14; U3A cells"}, "[4]": {"molecular_target": "proteins of U3A human fibrosarcoma cells (4462 proteins detected) (Homo sapiens, UniProt Q99848)", "sequence (Q99848 whole entry)": "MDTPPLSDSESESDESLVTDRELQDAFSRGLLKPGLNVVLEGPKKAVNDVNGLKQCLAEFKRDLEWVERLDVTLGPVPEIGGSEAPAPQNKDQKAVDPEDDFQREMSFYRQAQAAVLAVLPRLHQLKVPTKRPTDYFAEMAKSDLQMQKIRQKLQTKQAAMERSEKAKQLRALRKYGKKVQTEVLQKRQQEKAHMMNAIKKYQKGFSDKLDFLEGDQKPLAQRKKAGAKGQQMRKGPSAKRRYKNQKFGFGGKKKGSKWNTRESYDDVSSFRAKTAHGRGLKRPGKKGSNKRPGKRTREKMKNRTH", "conditions": "protein EBNA1BP2; U3A cells"}, "[5]": {"molecular_target": "proteins of U3A human fibrosarcoma cells (4462 proteins detected) (Homo sapiens, UniProt Q9H871)", "sequence (Q9H871 whole entry)": "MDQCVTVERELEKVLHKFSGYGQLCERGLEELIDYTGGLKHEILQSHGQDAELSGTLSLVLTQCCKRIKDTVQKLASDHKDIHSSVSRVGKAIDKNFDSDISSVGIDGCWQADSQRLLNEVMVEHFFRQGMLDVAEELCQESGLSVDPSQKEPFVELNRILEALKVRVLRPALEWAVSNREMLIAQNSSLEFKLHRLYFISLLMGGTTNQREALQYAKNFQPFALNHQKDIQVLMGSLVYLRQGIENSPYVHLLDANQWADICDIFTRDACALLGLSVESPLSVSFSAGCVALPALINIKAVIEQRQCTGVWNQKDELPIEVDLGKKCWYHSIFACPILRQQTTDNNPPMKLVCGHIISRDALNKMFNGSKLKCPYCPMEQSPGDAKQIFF", "conditions": "protein RMND5A; U3A cells"}, "[6]": {"molecular_target": "proteins of U3A human fibrosarcoma cells (4462 proteins detected) (Homo sapiens, UniProt Q8TDP1)", "sequence (Q8TDP1 whole entry)": "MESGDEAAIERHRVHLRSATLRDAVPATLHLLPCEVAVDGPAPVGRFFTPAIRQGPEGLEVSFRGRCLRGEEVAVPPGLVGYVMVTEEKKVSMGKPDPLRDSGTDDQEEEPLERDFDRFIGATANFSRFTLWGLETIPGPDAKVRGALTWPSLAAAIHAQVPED", "conditions": "protein RNASEH2C, U3A cells"}, "[7]": {"molecular_target": "proteins of U3A human fibrosarcoma cells (4462 proteins detected) (Homo sapiens, UniProt O60573)", "sequence (O60573 whole entry)": "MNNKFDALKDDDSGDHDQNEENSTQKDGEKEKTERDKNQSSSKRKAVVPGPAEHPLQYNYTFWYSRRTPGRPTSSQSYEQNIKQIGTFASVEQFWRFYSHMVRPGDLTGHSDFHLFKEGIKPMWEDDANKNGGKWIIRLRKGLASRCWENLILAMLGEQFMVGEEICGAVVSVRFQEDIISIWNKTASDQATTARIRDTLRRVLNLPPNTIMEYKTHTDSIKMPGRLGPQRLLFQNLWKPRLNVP", "conditions": "protein EIF4E2; soluble abundance after heat, U3A cells"}, "[8]": {"molecular_target": "proteins of U3A human fibrosarcoma cells (4462 proteins detected) (Homo sapiens, UniProt P13489)", "conditions": "protein RNH1; U3A cells"}, "[9]": {"molecular_target": "proteins of U3A human fibrosarcoma cells (4462 proteins detected) (Homo sapiens, UniProt P52747)", "conditions": "protein ZNF143; U3A, 10 μM, 2 h"}, "[10]": {"molecular_target": "proteins of U3A human fibrosarcoma cells (4462 proteins detected) (Homo sapiens, UniProt P20042)", "sequence (P20042 whole entry)": "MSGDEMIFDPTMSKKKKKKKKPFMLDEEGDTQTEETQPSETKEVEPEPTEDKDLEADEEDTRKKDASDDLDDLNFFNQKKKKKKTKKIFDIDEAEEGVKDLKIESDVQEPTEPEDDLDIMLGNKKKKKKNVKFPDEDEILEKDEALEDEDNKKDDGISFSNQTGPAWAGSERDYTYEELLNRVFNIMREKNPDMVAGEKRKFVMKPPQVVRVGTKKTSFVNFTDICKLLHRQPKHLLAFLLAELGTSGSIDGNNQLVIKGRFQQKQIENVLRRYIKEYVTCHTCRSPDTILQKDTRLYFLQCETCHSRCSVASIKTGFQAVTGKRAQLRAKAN", "conditions": "protein EIF2S2; U3A cells"}, "[11]": {"molecular_target": "proteins of U3A human fibrosarcoma cells (4462 proteins detected) (Homo sapiens, UniProt O14737)", "sequence (O14737 whole entry)": "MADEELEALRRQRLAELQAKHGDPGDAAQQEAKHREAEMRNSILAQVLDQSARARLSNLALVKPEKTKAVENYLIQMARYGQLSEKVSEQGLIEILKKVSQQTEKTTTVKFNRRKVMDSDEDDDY", "conditions": "protein PDCD5, U3A cells"}, "[12]": {"molecular_target": "proteins of U3A human fibrosarcoma cells (4462 proteins detected) (Homo sapiens, UniProt Q9Y3D3)", "conditions": "protein MRPS16; U3A, 10 μM, 2 h"}, "[13]": {"molecular_target": "proteins of U3A human fibrosarcoma cells (4462 proteins detected) (Homo sapiens, UniProt Q9UIG0)", "conditions": "protein BAZ1B; U3A cells"}, "[14]": {"molecular_target": "proteins of U3A human fibrosarcoma cells (4462 proteins detected) (Homo sapiens, UniProt Q9Y608)", "sequence (Q9Y608 whole entry)": "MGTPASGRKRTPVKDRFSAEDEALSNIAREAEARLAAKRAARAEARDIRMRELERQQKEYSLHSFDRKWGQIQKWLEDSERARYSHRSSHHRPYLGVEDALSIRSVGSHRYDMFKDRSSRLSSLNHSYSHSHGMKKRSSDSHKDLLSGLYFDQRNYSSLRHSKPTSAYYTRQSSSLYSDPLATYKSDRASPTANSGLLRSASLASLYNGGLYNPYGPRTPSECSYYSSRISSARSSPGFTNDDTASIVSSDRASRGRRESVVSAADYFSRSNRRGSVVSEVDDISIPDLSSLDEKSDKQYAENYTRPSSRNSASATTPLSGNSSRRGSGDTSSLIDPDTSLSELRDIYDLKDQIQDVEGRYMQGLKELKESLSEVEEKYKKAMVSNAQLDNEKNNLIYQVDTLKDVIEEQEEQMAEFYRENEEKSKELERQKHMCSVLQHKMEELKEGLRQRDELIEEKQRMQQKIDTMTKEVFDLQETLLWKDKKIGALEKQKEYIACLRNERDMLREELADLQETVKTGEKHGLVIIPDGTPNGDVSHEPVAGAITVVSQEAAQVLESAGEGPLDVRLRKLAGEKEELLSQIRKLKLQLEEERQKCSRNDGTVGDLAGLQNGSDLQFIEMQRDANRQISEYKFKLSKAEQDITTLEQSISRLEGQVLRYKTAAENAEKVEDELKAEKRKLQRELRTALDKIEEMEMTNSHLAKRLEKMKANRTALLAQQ", "conditions": "protein LRRFIP2, U3A cells"}, "[15]": {"molecular_target": "proteins of U3A human fibrosarcoma cells (4462 proteins detected) (Homo sapiens, UniProt Q9BZJ0)", "conditions": "protein CRNKL1; U3A cells"}, "[16]": {"molecular_target": "proteins of U3A human fibrosarcoma cells (4462 proteins detected) (Homo sapiens, UniProt Q969Z0)", "sequence (Q969Z0 108-631)": "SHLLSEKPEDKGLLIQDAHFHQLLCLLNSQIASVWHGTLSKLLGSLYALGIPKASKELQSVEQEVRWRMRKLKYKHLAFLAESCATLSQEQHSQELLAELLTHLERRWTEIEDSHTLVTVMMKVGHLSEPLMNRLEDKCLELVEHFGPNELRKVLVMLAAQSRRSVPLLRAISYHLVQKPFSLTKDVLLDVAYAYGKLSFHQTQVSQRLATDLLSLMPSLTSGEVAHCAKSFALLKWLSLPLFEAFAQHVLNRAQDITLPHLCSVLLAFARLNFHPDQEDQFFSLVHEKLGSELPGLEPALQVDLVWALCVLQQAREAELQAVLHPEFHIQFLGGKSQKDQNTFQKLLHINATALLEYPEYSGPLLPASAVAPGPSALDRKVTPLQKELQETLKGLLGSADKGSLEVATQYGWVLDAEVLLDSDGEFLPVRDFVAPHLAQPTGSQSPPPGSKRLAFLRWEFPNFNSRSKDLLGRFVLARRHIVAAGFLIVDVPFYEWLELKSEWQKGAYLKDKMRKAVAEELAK", "conditions": "protein TBRG4; U3A cells"}, "[17]": {"molecular_target": "proteins of U3A human fibrosarcoma cells (4462 proteins detected) (Homo sapiens, UniProt Q93008)", "conditions": "protein USP9X; soluble abundance after heat, U3A cells"}, "[18]": {"molecular_target": "proteins of U3A human fibrosarcoma cells (4462 proteins detected) (Homo sapiens, UniProt Q9BX40)", "conditions": "protein LSM14B; U3A, 10 μM, 2 h"}, "[19]": {"molecular_target": "proteins of U3A human fibrosarcoma cells (4462 proteins detected) (Homo sapiens, UniProt Q9Y6E2)", "sequence (Q9Y6E2 whole entry)": "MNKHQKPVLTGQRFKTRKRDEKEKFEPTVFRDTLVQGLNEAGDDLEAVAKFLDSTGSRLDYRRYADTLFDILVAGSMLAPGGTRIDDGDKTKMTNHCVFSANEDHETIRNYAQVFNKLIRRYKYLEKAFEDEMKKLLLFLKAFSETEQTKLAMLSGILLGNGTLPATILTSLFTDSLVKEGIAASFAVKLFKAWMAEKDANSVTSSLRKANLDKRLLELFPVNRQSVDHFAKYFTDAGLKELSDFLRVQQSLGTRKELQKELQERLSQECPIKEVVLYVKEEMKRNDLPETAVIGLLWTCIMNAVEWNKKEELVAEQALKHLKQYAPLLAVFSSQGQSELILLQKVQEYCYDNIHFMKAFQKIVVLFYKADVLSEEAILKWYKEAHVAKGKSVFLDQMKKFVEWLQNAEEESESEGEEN", "conditions": "protein BZW2; U3A cells"}, "[20]": {"molecular_target": "proteins of U3A human fibrosarcoma cells (4462 proteins detected) (Homo sapiens, UniProt P61201)", "sequence (P61201 whole entry)": "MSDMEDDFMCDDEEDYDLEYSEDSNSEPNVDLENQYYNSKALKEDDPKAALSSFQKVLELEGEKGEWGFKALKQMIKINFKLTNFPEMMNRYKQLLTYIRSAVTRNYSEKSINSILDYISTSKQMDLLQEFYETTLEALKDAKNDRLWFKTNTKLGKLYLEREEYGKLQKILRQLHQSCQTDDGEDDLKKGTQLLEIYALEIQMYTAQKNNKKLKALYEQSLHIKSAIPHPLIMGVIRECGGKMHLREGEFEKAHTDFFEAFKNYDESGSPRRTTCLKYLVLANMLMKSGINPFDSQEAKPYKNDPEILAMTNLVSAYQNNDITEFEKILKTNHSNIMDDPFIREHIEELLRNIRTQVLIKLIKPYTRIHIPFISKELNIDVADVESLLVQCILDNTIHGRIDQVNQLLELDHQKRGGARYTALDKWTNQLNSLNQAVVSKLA", "conditions": "protein COPS2; U3A cells"}, "[21]": {"molecular_target": "proteins of U3A human fibrosarcoma cells (4462 proteins detected) (Homo sapiens, UniProt Q5VW36)", "conditions": "protein FOCAD; U3A cells"}, "[22]": {"molecular_target": "proteins of U3A human fibrosarcoma cells (4462 proteins detected) (Homo sapiens, UniProt Q9Y3A4)", "conditions": "protein RRP7A; U3A cells"}, "[23]": {"molecular_target": "proteins of U3A human fibrosarcoma cells (4462 proteins detected) (Homo sapiens, UniProt P14866)", "sequence (P14866 whole entry)": "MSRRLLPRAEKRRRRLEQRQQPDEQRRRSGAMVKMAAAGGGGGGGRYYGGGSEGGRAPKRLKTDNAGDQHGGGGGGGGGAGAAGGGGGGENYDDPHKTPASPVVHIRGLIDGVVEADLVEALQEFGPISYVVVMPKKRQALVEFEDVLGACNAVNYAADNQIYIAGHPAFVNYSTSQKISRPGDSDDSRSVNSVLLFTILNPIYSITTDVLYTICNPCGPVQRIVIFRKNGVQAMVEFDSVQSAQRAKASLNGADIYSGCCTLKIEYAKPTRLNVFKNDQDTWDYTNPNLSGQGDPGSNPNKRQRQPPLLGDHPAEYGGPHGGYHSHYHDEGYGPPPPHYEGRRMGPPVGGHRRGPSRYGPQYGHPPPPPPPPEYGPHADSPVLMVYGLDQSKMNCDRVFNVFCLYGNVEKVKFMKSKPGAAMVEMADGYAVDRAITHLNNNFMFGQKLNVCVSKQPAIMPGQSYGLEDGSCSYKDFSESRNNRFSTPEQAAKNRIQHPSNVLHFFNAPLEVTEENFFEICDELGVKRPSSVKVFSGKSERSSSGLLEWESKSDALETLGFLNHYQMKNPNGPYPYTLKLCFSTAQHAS", "conditions": "protein HNRNPL; soluble abundance after heat, U3A cells"}, "[24]": {"molecular_target": "proteins of U3A human fibrosarcoma cells (4462 proteins detected) (Homo sapiens, UniProt Q8NFH4)", "conditions": "protein NUP37, U3A cells"}, "[25]": {"molecular_target": "proteins of U3A human fibrosarcoma cells (4462 proteins detected) (Homo sapiens, UniProt Q9NP64)", "sequence (Q9NP64 whole entry)": "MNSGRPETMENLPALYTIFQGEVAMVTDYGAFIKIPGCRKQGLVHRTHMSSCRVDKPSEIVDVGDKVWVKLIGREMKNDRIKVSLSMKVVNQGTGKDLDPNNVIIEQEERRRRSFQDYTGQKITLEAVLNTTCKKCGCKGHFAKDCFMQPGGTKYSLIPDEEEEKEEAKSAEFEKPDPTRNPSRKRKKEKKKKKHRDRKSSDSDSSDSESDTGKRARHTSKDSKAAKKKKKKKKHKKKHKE", "conditions": "protein ZCCHC17; soluble abundance after heat, U3A cells"}, "[26]": {"molecular_target": "proteins of U3A human fibrosarcoma cells (4462 proteins detected) (Homo sapiens, UniProt P23469)", "conditions": "protein PTPRE; soluble abundance after heat, U3A cells"}, "[27]": {"molecular_target": "proteins of U3A human fibrosarcoma cells (4462 proteins detected) (Homo sapiens, UniProt P35249)", "conditions": "protein RFC4; U3A, 10 μM, 2 h"}, "[28]": {"molecular_target": "proteins of U3A human fibrosarcoma cells (4462 proteins detected) (Homo sapiens, UniProt Q8WXD5)", "conditions": "protein GEMIN6, U3A cells"}, "[29]": {"molecular_target": "proteins of U3A human fibrosarcoma cells (4462 proteins detected) (Homo sapiens, UniProt Q00765)", "conditions": "protein REEP5; U3A cells"}, "[30]": {"molecular_target": "proteins of U3A human fibrosarcoma cells (4462 proteins detected) (Homo sapiens, UniProt O00159)", "conditions": "protein MYO1C, U3A cells"}}}
{"molecule": "CCc1nc(N)nc(N)c1-c1ccc(Cl)cc1", "note": "[pyrimethamine]", "values": [{"measurement": "Log2 (PYR/DMSO), CEP83", "setting": "[1]", "value": -0.43}, {"measurement": "Log2 (PYR/DMSO)", "setting": "[2]", "value": 0.22}, {"measurement": "Log2 (PYR/DMSO)", "setting": "[3]", "value": 0.17}, {"measurement": "Log2 (PYR/DMSO)", "setting": "[4]", "value": 0.21}, {"measurement": "Log2 (PYR/DMSO)", "setting": "[5]", "value": 0.21}, {"measurement": "Log2 (PYR/DMSO)", "setting": "[6]", "value": -0.03}, {"measurement": "Log2 (PYR/DMSO)", "setting": "[7]", "value": 0.15}, {"measurement": "Log2 (PYR/DMSO)", "setting": "[8]", "value": 0.18}, {"measurement": "Log2 (PYR/DMSO), ZNF143", "setting": "[9]", "value": -0.16}, {"measurement": "Log2 (PYR/DMSO)", "setting": "[10]", "value": 0.17}, {"measurement": "Log2 (PYR/DMSO)", "setting": "[11]", "value": -0.04}, {"measurement": "Log2 (PYR/DMSO), MRPS16", "setting": "[12]", "value": 0.24}, {"measurement": "Log2 (PYR/DMSO)", "setting": "[13]", "value": 0.21}, {"measurement": "Log2 (PYR/DMSO)", "setting": "[14]", "value": -0.04}, {"measurement": "Log2 (PYR/DMSO)", "setting": "[15]", "value": 0.16}, {"measurement": "Log2 (PYR/DMSO)", "setting": "[16]", "value": 0.19}, {"measurement": "Log2 (PYR/DMSO)", "setting": "[17]", "value": 0.14}, {"measurement": "Log2 (PYR/DMSO), LSM14B", "setting": "[18]", "value": -0.17}, {"measurement": "Log2 (PYR/DMSO)", "setting": "[19]", "value": 0.19}, {"measurement": "Log2 (PYR/DMSO)", "setting": "[20]", "value": 0.21}, {"measurement": "Log2 (PYR/DMSO)", "setting": "[21]", "value": 0.20}, {"measurement": "Log2 (PYR/DMSO)", "setting": "[22]", "value": 0.19}, {"measurement": "Log2 (PYR/DMSO)", "setting": "[23]", "value": 0.15}, {"measurement": "Log2 (PYR/DMSO)", "setting": "[24]", "value": -0.04}, {"measurement": "Log2 (PYR/DMSO)", "setting": "[25]", "value": 0.15}, {"measurement": "Log2 (PYR/DMSO)", "setting": "[26]", "value": 0.13}, {"measurement": "Log2 (PYR/DMSO), RFC4", "setting": "[27]", "value": 0.27}, {"measurement": "Log2 (PYR/DMSO)", "setting": "[28]", "value": -0.04}, {"measurement": "Log2 (PYR/DMSO)", "setting": "[29]", "value": 0.19}, {"measurement": "Log2 (PYR/DMSO)", "setting": "[30]", "value": -0.03}]}
